From US20220184008A1, “MODULATORS OF INTRACELLULAR CHLORIDE CONCENTRATION” (FONDAZIONE ISTITUTO ITALIANO DI TECNOLOGIA, priority 2019, published 2022)

Legend:
NKCC1 = assay: Calcium kinetic assay in primary cultures of immature hippocampal neurons; type: cell-based; details: for NKCC1 Inhibition % 10 μM Neurons Calcium kinetic assay: immature neurons 3 DIV; for fluorescence increase upon GABA application compared with vehicle (DMSO)-treated controls: GABA 100 μM, normalized to KCl
Description: FIG. 2: In vitro testing of the NKCC1 inhibitors in a calcium kinetic assay. a) Example traces of fluorescence levels upon application of GABA (100 μM) and KCl (90 mM) used to trigger calcium influx in primary neuronal cultures treated after 3 days in culture (3 DIV) with vehicle, bumetanide, furosemide and compounds 3.8, 3.13 and 3.17 in the calcium kinetic assay. b) Quantification of the average fluorescence increase upon GABA application normalized to the increase upon KCl application in neurons treated with bumetanide, furosemide and 3 exemplary compounds (3.8, 3.13, 3.17) (10 μM, 100 μM). Data represents mean±sem from 5 independent experiments, and they are presented as % of the control. *P<0.05, **P<0.01, ***P<0.001 Kruskal-Wallis Anova (Dunn's Post hoc Test).
Next, the compounds of the invention were tested for their ability to revert the depolarizing GABAergic signaling in immature neurons. This effect was indirectly measured as calcium influx into the cells with an in vitro calcium kinetic assay in primary cultures of hippocampal neurons. The calcium kinetic assay exploits the physiological, endogenous, high expression of NKCC1 in immature neurons, which causes depolarizing actions of GABA and can activate voltage-gated Ca^2+ channels. Thus, in immature neurons, a compound that blocks NKCC1 is predicted to inhibit Ca^2+ responses upon GABA application. Immature neurons were cultured for 3 days in vitro (3 DIV) and loaded for 15 min with a calcium-sensitive dye (Fluo4). Then, the neurons were treated with bumetanide and furosemide (as positive controls) or with each of the selected compounds for 15 min. As a functional readout, the fluorescence level was monitored in these cultures before and after application of GABA (100 μM, for 20 sec). To test for neuronal viability at the end of the experiment, KCl was applied (90 mM, for 40 sec), which strongly depolarizes neurons, causing high activation of voltage-gated Ca^2+ channels in live cells. To quantify how bumetanide, furosemide, and selected compounds influenced NKCC1 inhibition, the fluorescence values were normalized upon GABA application to the fluorescence levels upon KCl application in treated neurons.

NKCC2 = target: T1, NKCC2 (Homo sapiens, UniProt Q13621); assay: Thallium-based assay in NKCC2-transfected HEK293 cells; type: cell-based
T1 construct: expressed in transfected cells; host or cells: HEK293
T1 sequence (Q13621 1-1099): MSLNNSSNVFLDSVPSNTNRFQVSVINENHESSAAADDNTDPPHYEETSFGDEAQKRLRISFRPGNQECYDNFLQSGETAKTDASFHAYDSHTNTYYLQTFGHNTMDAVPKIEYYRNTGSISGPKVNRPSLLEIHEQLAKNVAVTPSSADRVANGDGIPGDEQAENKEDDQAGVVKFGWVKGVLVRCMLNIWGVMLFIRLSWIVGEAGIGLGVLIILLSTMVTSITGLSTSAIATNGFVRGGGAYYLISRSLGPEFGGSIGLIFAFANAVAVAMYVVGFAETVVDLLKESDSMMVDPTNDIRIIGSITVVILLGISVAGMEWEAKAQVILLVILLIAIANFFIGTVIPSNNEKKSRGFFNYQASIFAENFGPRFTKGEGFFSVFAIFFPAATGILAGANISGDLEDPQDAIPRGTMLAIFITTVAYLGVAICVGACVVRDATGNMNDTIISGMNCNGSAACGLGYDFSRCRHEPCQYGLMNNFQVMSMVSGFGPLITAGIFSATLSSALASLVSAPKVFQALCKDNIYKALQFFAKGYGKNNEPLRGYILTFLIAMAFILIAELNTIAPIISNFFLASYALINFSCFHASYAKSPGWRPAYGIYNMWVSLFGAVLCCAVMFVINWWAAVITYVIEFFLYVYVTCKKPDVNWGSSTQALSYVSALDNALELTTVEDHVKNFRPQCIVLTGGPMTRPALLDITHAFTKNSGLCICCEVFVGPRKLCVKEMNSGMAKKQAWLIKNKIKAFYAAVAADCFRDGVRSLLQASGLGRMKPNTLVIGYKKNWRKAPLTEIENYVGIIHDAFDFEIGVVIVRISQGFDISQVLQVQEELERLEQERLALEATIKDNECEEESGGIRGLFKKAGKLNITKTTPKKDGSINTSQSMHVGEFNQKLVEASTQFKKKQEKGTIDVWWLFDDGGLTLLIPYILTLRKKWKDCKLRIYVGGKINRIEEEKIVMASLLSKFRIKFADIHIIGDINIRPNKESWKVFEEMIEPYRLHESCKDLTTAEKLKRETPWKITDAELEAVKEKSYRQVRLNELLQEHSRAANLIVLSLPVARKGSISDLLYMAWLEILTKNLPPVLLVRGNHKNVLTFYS
From the text: The Thallium-based assay is a standard assay used to measure activity of potassium transporters, like NKCC2 which is a sodium potassium and chloride co-transporter. The assay consists on the monitoring of the cells upon the application of thallium (which mimic K^+) and consequently NaCl, which entering into cells by NKCC2, activated by the presence of the chloride ions, binds the fluorescent dye, thus determining a fluorescence increase. This assay involves parallel testing in 96 wells for a quick and easy drug screening. In detail, kidney epithelial cells (HEK293) were transfected with NKCC2 transporters, or a mock construct (control). After two days, the cells were loaded with a thallium-sensitive fluorescent dye in a Cl-free medium. After 1 hour of incubation, the inhibitory activity of bumetanide and furosemide (as positive controls) and the new compounds by monitoring fluorescence upon application of thallium (to mimic K) and subsequently NaCl were tested. When entering cells by NKCC2 (activated by the presence of Cl), thallium binds the fluorescent dye and increases fluorescence. […] A decreased fluorescence in the mock-transfected cells treated with bumetanide and furosemide was observed. […] This latter result was used to normalize the fluorescence measurements obtained with the assay. In particular, the ΔF/F0 value of the mock-transfected cells (both control and treated) was subtracted from the respective ΔF/F0 value of the cells transfected with the Cl transporters. With this assay, the novel chemical entities were tested for their ability to block NKCC2 (Results in Table 2).
The arrow indicates the addition of thallium (final concentration 2 mM) and NaCl stimulus (135 mM) used to initiate the flux assay. b) Quantification of the effect of bumetanide, furosemide and 3 example compounds (3.8, 3.13, 3.17) in the thallium-based assay on NKCC2-transfected HEK293 cells. Data represents mean±sem from 5 independent experiments, and they are represented as % of the controls. *P<0.05, **P<0.01, ***P<0.001 Kruskal-Wallis Anova (Dunn's Post hoc Test); ###P<0.001 two-tailed unpaired Student t-test.

[1] = 10 μM, NKCC2-transfected HEK293, Table 2

Row | Molecule | inhibition at 10 µM (NKCC2; [1]) | NKCC1/NKCC2 selectivity (NKCC2; among compounds of the invention) | ion flux and consequent increase in fluorescence in NKCC2-transfected cells (NKCC2; pre-incubation 10 μM) | NKCC1 Inhibition % 10 μM Neurons Calcium kinetic assay (NKCC1; Table 1) | NKCC1 Inhibition % 10 μM Neurons Calcium kinetic assay (NKCC1; Table 2) | fluorescence increase upon GABA application compared with vehicle (DMSO)-treated controls (NKCC1) | NKCC2 Inhibition % 10 μM Thallium Assay (NKCC2; [1])
1 | CCCCCCCCNc1ccc(C(=O)O)cc1S(=O)(=O)N(C)C [Compound 3.13, 3-(dimethylsulfamoyl)-4-(octylamino)benzoic acid] | 0% |  |  | 45% | 45% |  | 
2 | CNS(=O)(=O)c1cc(C(=O)O)ccc1NCCC(C)(C)C [Compound 3.9, 4-(3,3-dimethylbutylamino)-3-(methylsulfamoyl)benzoic acid] | 12% |  |  | 14% | 14% |  | 
3 | CCCCCCNc1ccc(C(=O)O)cc1S(=O)(=O)N(C)C [Compound 3.12, 3-(dimethylsulfamoyl)-4-(hexylamino)benzoic acid] | 29% |  |  | 13% | 13% |  | 
4 | CN(C)S(=O)(=O)c1cc(C(=O)O)ccc1NCCCCCCCC(F)(F)F [Compound 3.17, 3-(dimethylsulfamoyl)-4-(8,8,8-trifluorooctylamino) benzoic acid] | 0% | highest |  | 46% | 46% |  | 
5 | CN(C)S(=O)(=O)c1cc(C(=O)O)ccc1NCCC(C)(C)C [Compound 3.14, 4-(3,3-dimethylbutylamino)-3-(dimethylsulfamoyl)benzoic acid] | 0% |  |  | 11% | 11% |  | 
6 | Furosemide [reference compound] |  |  |  | 36% | 36% | significantly reduced | 0%
7 | CCCCNc1ccc(C(=O)O)cc1S(=O)(=O)NC [Compound 3.6, 4-(butylamino)-3-(methylsulfamoyl)benzoic acid] | 22% |  |  | 6% | 6% |  | 

The next lines start with results.

Row | inhibition at 10 µM (NKCC2; [1]) | NKCC1/NKCC2 selectivity (NKCC2; among compounds of the invention) | ion flux and consequent increase in fluorescence in NKCC2-transfected cells (NKCC2; pre-incubation 10 μM) | Molecule | NKCC1 Inhibition % 10 μM Neurons Calcium kinetic assay (NKCC1; Table 1) | NKCC1 Inhibition % 10 μM Neurons Calcium kinetic assay (NKCC1; Table 2) | fluorescence increase upon GABA application compared with vehicle (DMSO)-treated controls (NKCC1) | NKCC2 Inhibition % 10 μM Thallium Assay (NKCC2; [1])
8 | 0% |  |  | CCCCCCCCNc1ccc(C(=O)O)cc1S(N)(=O)=O [Compound 2.8, 4-(octylamino)-3-sulfamoyl-benzoic acid] | 3% | 3% |  | 
9 | 23% |  |  | CC(C)(C)CCNc1ccc(C(=O)O)cc1S(N)(=O)=O [Compound 2.9, 4-(3,3-dimethylbutylamino)-3-sulfamoyl-benzoic acid] | 25% | 25% |  | 
10 | 0% |  |  | CCCCCCNc1ccc(C(=O)O)cc1S(N)(=O)=O [Compound 2.7, 4-(hexylamino)-3-sulfamoyl-benzoic acid] | 10% | 10% |  | 
11 | 0% |  |  | CCCCNc1ccc(C(=O)O)cc1S(=O)(=O)N(C)C [Compound 3.11, 4-(butylamino)-3-(dimethylsulfamoyl)benzoic acid] | 8% | 8% |  | 
12 | 0% |  |  | CCCCNc1cc(Cl)c(C(=O)O)cc1S(N)(=O)=O [Compound 2.2, 4-(butylamino)-2-chloro-5-sulfamoyl-benzoic acid] | 2% | 2% |  | 
13 | 99% |  | significantly reduced | CCCCNc1cc(C(=O)O)cc(S(N)(=O)=O)c1Oc1ccccc1 [Bumetanide, reference compound] | 52% | 52% | significantly reduced | 
14 | 8% |  |  | CCCCCCNc1ccc(C(=O)O)cc1S(=O)(=O)NC [Compound 3.7, 4-(hexylamino)-3-(methylsulfamoyl)benzoic acid] | 7% | 7% |  | 
15 | 0% |  |  | CCCCCCCCNc1ccc(C(=O)O)cc1S(=O)(=O)NC [Compound 3.8, 3-(methylsulfamoyl)-4-(octylamino)benzoic acid] | 20% | 20% |  | 
16 | 10% |  |  | CCCCCCNc1ccc([N+](=O)[O-])cc1S(N)(=O)=O [Compound 1.7, 2-(hexylamino)-5-nitro-benzenesulfonamide] | 36% | 36% |  | 
17 | 0% |  |  | CCCCNc1ccc(C(=O)O)cc1S(N)(=O)=O [Compound 2.6, 4-(butylamino)-3-sulfamoyl-benzoic acid] | 14% | 14% |  | 
